Like-named read-outs stand apart in the source and are kept apart here.
Legend:
[1] = tested on: Neospora caninum parasites (NC-1 strain); experiment: N. caninum (NC-1, lac-Z) growth inhibition in HFF, β-Gal assay; format: cell-based; conditions: 72 h
Method: Neospora caninum parasites (NC-1 strain) expressing a lac-Z transgene (1) were serially passaged as tachyzoites in human foreskin fibroblasts cultured in DMEM supplemented with 10% fetal bovine serum (FBS), glutamine (10 mM) and gentamycin (10 μg/mL). Mature cultures were scraped, syringe passed using a 25 g needle to release parasites, filtered through a 3 micron polycarbonate filter to remove host cell debris and counted prior to each assay. All cultures were maintained in a 37° C. incubator with 5% CO2 and were verified mycoplasma free using the e-Myco plus Mycoplasma PCR detection kit (Boca Scientific).
Compounds were prepared as 10 mM stock in 100% DMSO. Pyrimethamine (positive control) and DMSO were included as controls in all plates and all replicates. The EC50 values were determined using a 10-point dose response curve using a 2-fold dilution series from 5.0 μM to 0.01 μM across the plate. Experiments were conducted in 96-well plates containing confluent HFF cells. Each assay plate was inoculated with 1×10^3 parasites (100 μL) containing 100 μL of 2× compound and incubated for 72 h prior to preparation for the j-Gal assay as described in Seeber, F. et al., Gene 169 (1996): 39-45, hereby incorporated by reference in its entirety and particularly in relation to the β-Gal assay protocol. Briefly, culture medium was replaced, wells rinsed with 200 μL of PBS followed by incubation with 50 μL of lysis buffer (100 mM HEPES, 1 mM MgSO4, 1% Triton X-100, 5 mM DTT) for 10 min at 50° C.
EC50 values determined from 10-point dose response curve (5 μM-0.01 μM) and presented as the average of three biological replicates. Linear regression and dose response inhibition (log ([compound]) vs normalized response-variable slope) were performed with Prism 8 for Mac (Graphpad Software, Inc.) and both the fits and data are shown in FIG. 1. Values represent the average of three biological replicates each with two internal replicates and are plotted as mean±S.E.M.

[2] = tested on: Toxoplasma gondii tachyzoites (ME49-FLUC, type 2); experiment: T. gondii ME49-FLUC tachyzoite growth inhibition in HFF, luciferase assay; format: cell-based; conditions: T. gondii ME49-FLUC (type 2) tachyzoites in HFF
Method: Toxoplasma gondii tachyzoites (ME49-FLUC, type 2) (27) were serially passaged in human foreskin fibroblasts (HFF) cultured in complete DMEM medium (DMEM supplemented with 10% fetal bovine serum (FBS), glutamine (10 mM) and gentamycin (10 μg/mL)). For each assay described, infected monolayers were scraped, needle passed (23 ga), and parasites were separated from host cell debris using a three (3) micron pore polycarbonate filter. HeLa cells were cultured in MEM media that contained 10% FBS, 4 mM L-glutamine and 10 mM HEPES solution. Cell culture and assays were conducted using a 37° C. incubator with 5% CO2. Cell cultures were negative for mycoplasma, as determined using the e-Myco plus kit (Intron Biotechnology).
White, clear bottom 96-well assay plates were set up as described above with the following modifications. Only the inner 60 wells were used for the assay in order to reduce variability that results from evaporation during incubation. Dilution of compound stock is as described above, with all wells containing a final concentration of 0.1% DMSO. DMSO (vehicle control) and pyrimethamine (2.5 μM, positive control) were included in the outside wells of all plates as controls. Liquid handling (serial dilutions, compound dilutions, cell feeding, plate-to-plate transfers, etc.) utilized a Dual Pod Biomek FX. Luciferase assays were performed using the integrated and automated platform (Beckman Coulter). The SAMI EX software was used to design and execute the screening assay and enabled efficient and uniform assay execution across all the assay plates.

[3] = N. caninum NC-1 lac-Z, 10-point dose response 5 μM-0.01 μM, average of three biological replicates, read-out: EC50

SMILES	EC50 [1, 3] [nM]	EC50 [2] [nM]	EC50 [1] [nM]
COc1ccc(NC(=O)N2C[C@H](O)[C@H](O)CN3[C@H](CN(C)C)[C@H](c4ccc(C#Cc5ccccc5)cc4)[C@@H]3C2)cc1 [Compound 8, (3R,4S,8R,9S,10S)-10-((dimethylamino)methyl)-3,4-dihydroxy-N-(4-methoxyphenyl)-9-(4-(phenylethynyl)phenyl)-1,6-diazabicyclo[6.2.0]decane-6-carboxamide]	30	39.3	–
COC[C@@H]1[C@H](c2ccc(C#Cc3ccccc3)cc2)[C@@H]2CN(C(=O)Nc3ccc(OC)cc3)CCCCN12 [Compound 9, (8R,9R,10S)-10-(methoxymethyl)-N-(4-methoxyphenyl)-9-(4-(phenylethynyl)phenyl)-1,6-diazabicyclo[6.2.0]decane-6-carboxamide]	–	50.4	–
COc1ccc(NC(=O)N2CCCCN3[C@H](CN4CCC4)[C@H](c4ccc(C#Cc5ccccc5)cc4)[C@@H]3C2)cc1 [Compound 17, (8R,9S,10S)-10-(azetidin-1-ylmethyl)-N-(4-methoxyphenyl)-9-(4-(phenylethynyl)phenyl)-1,6-diazabicyclo[6.2.0]decane-6-carboxamide]	–	442	–
COc1ccc(NC(=O)N2CCCCN3[C@H](COCCC(=O)O)[C@H](c4ccc(C#Cc5ccccc5)cc4)[C@@H]3C2)cc1 [Compound 2, 3-(((8R,9R,10S)-6-((4-methoxyphenyl)carbamoyl)-9-(4-(phenylethynyl)phenyl)-1,6-diazabicyclo[6.2.0]decan-10-yl)methoxy)propanoic acid]	–	64.3	–
COc1ccc(NC(=O)N2CCCCN3C[C@H](c4ccc(C#Cc5ccccc5)cc4)[C@@H]3C2)cc1 [Compound 16]	193	77	–
CCc1nc(N)nc(N)c1-c1ccc(Cl)cc1 [Pyrimethamine (Pyr), Pyrimethamine, reference compound]	–	–	263
O=C(NC1CCC1)N1CCCCN2[C@H](CO)[C@H](c3ccc(C#Cc4ccccc4)cc3)[C@@H]2C1 [Compound 3, (8R,9R,10S)-N-cyclobutyl-10-(hydroxymethyl)-9-(4-(phenylethynyl)phenyl)-1,6-diazabicyclo[6.2.0]decane-6-carboxamide]	–	2580	–
COc1ccc(NC(=O)N2CCCCN3[C@H](CO)[C@H](c4ccc(C#Cc5ccccc5C#N)cc4)[C@@H]3C2)cc1 [Compound 12, (8R,9R,10S)-9-(4-((2-cyanophenyl)ethynyl)phenyl)-10-(hydroxymethyl)-N-(4-methoxyphenyl)-1,6-diazabicyclo[6.2.0]decane-6-carboxamide]	–	213	–
COc1ccc(NC(=O)N2CCCCCN3[C@H](CO)[C@H](c4ccc(C#Cc5ccccc5)cc4)[C@@H]3C2)cc1 [Compound 20, (9R,10R,11S)-11-(hydroxymethyl)-N-(4-methoxyphenyl)-10-(4-(phenylethynyl)phenyl)-1,7-diazabicyclo[7.2.0]undecane-7-carboxamide]	157	169	–
COc1ccc(NC(=O)N2CCCCN3[C@H](CN(C)CCF)[C@H](c4ccc(C#Cc5ccccc5)cc4)[C@@H]3C2)cc1 [Compound 5, (8R,9S,10S)-10-(((2-fluoroethyl)(methyl)amino)methyl)-N-(4-methoxyphenyl)-9-(4-(phenylethynyl)phenyl)-1,6-diazabicyclo[6.2.0]decane-6-carboxamide]	–	89.5	–
COc1ccc(NC(=O)N2CCCCN3[C@H](CO)[C@H](c4ccc(C#Cc5ccccc5)cc4)[C@]3(CO)C2)cc1 [Compound 11, (8R,9S,10S)-8,10-bis(hydroxymethyl)-N-(4-methoxyphenyl)-9-(4-(phenylethynyl)phenyl)-1,6-diazabicyclo[6.2.0]decane-6-carboxamide]	–	1690	–
O=C(Nc1cccc(F)c1)N1CCCCN2[C@H](CO)[C@H](c3ccc(C#Cc4cccnc4)cc3)[C@@H]2C1 [Compound 10, (8R,9R,10S)-N-(3-fluorophenyl)-10-(hydroxymethyl)-9-(4-(pyridin-3-ylethynyl)phenyl)-1,6-diazabicyclo[6.2.0]decane-6-carboxamide]	–	493	–
CN(C[C@@H]1[C@H](c2ccc(C#Cc3ccccc3)cc2)[C@@H]2CN(C(=O)Nc3ccc(OC4CC4)cc3)CCCCN12)S(C)(=O)=O [Compound 14, (8R,9R,10S)-N-(4-cyclopropoxyphenyl)-10-((N-methylmethylsulfonamido)methyl)-9-(4-(phenylethynyl)phenyl)-1,6-diazabicyclo[6.2.0]decane-6-carboxamide]	37	18.5	–
COc1ccc(NC(=O)N2CCCCN3[C@H](CO)[C@H](c4ccc(C#CC5CC5)cc4)[C@@H]3C2)cc1 [Compound 7, (8R,9R,10S)-9-(4-(cyclopropylethynyl)phenyl)-10-(hydroxymethyl)-N-(4-methoxyphenyl)-1,6-diazabicyclo[6.2.0]decane-6-carboxamide]	–	1610	–
COc1ccc(NC(=O)N2CCCCN3[C@H](CN4CCN(C)CC4)[C@H](c4ccc(C#Cc5ccccc5)cc4)[C@@H]3C2)cc1 [Compound 1, (8R,9S,10S)-N-(4-methoxyphenyl)-10-((4-methylpiperazin-1-yl)methyl)-9-(4-(phenylethynyl)phenyl)-1,6-diazabicyclo[6.2.0]decane-6-carboxamide]	–	425	–
COc1ccc(NC(=O)N2CCCCN3[C@@H](CO)[C@H](c4ccc(C#Cc5ccccn5)cc4)[C@@H]3C2)cc1 [Compound 13, (8R,9R,10R)-10-(hydroxymethyl)-N-(4-methoxyphenyl)-9-(4-(pyridin-2-ylethynyl)phenyl)-1,6-diazabicyclo[6.2.0]decane-6-carboxamide]	–	646	–
COc1ccc(NC(=O)N2CCCCN3[C@H](CO)[C@H](c4ccc(C#Cc5ccccc5)cc4)[C@@H]3C2)cc1 [Compound 18, (8R,9R,10S)-10-(hydroxymethyl)-N-(4-methoxyphenyl)-9-(4-(phenylethynyl)phenyl)-1,6-diazabicyclo[6.2.0]decane-6-carboxamide]	–	28.9	–
COc1ccc(NC(=O)N2CCCCN3[C@H](CN(C)S(C)(=O)=O)[C@H](c4ccc(C#Cc5ccccc5)cc4)[C@@H]3C2)cc1 [Compound 4, (8R,9R,10S)-N-(4-methoxyphenyl)-10-((N-methylmethylsulfonamido)methyl)-9-(4-(phenylethynyl)phenyl)-1,6-diazabicyclo[6.2.0]decane-6-carboxamide]	–	34.8	–
COc1ccc(NC(=O)N2CCCCN3[C@@H](C2)[C@@H](c2ccc(C#Cc4ccccc4)cc2)[C@@H]3CN(C)S(C)(=O)=O)cc1 [Compound 6, (8R,9R,10R)-N-(4-methoxyphenyl)-10-((N-methylmethylsulfonamido)methyl)-9-(4-(phenylethynyl)phenyl)-1,6-diazabicyclo[6.2.0]decane-6-carboxamide]	60	40	–
OC[C@@H]1[C@H](c2ccc(C#Cc3ccccc3)cc2)[C@@H]2CN(c3nc4ccccc4s3)CCCCN12 [Compound 19, ((8R,9R,10S)-6-(benzo[d]thiazol-2-yl)-9-(4-(phenylethynyl)phenyl)-1,6-diazabicyclo[6.2.0]decan-10-yl)methanol]	–	3940	–
COc1ccc(NC(=O)N2CCCN3[C@H](CO)[C@H](c4ccc(C#Cc5ccccc5)cc4)[C@@H]3C2)cc1 [Compound 21, (7R,8R,9S)-9-(hydroxymethyl)-N-(4-methoxyphenyl)-8-(4-(phenylethynyl)phenyl)-1,5-diazabicyclo[5.2.0]nonane-5-carboxamide]	–	1750	–
